According to article PMC12567909 (Veterinary Sciences, 2025):
Read-outs that look alike come from different tables or passages of the source.

Key:
[1] = biological target: T1, DPV pUL15FL (full-length pUL15) (anatid alphaherpesvirus 1, UniProt C6ZD26); type: biochemical
T1 construct: gene UL15

[2] = biological target: T2, pUL15N (N-terminus domain of DPV pUL15) (anatid alphaherpesvirus 1, UniProt C6ZD26); conditions: 1 mM ATP, 2 µM protein, 2 mM MgCl2, 50 mM NaCl, pH 7.5, 37 °C
T2 construct: gene UL15

| SMILES | malachite green phosphate release [1] | malachite green phosphate release ([1]; 1 mM ATP, 2 mM MgCl2, 50 mM NaCl, pH 7.5, 37 °C) | malachite green phosphate release [2] |
| --- | --- | --- | --- |
| Nc1ncnc2c1ncn2[C@@H]1O[C@H](COP(=O)(O)OP(=O)(O)O)[C@@H](O)[C@H]1O [ADP] | DPV pUL15FL hydrolyzes both ATP and ADP | – | – |
| Nc1ncnc2c1ncn2[C@@H]1O[C@H](COP(=O)(O)OP(=O)(O)OP(=O)(O)O)[C@@H](O)[C@H]1O [ATP] | – | DPV pUL15FL hydrolyzes both ATP and ADP | the pUL15N exhibited ATPase activity like pUL15FL, whereas pUL15C did not |
